In patent US10314308B2, “Microbiocidal benzoxaboroles” (SYNGENTA PARTICIPATIONS AG, priority 2015, dated 2019) one finds inhibition, pest or weed control and melting point data, which are given here for 11 molecules.

One data set relates to Pythium Ultimum. In words: Pythium ultimum / liquid culture (seedling damping off). It counts as cell-based. Particulars: Globisporangium ultimum, potato dextrose broth, 24° C., 2-3 days after application, read-out: disease control (inhibition of growth, photometrically).
The subject of the next data set is Plasmopara Viticola. The data set is described as follows: whole plant or invertebrate. It counts as in vivo. As to conditions: foliar, read-out: disease control.
Data set [1] deals with Mycosphaerella Graminicola(Septoria Tritici). The data set is described as follows: Mycosphaerella graminicola (Septoria tritici) / liquid culture (Septoria blotch). It counts as cell-based. Particulars: Zymoseptoria tritici, PDB potato dextrose broth, 24° C., 4-5 days after application, read-out: disease control (inhibition of growth, photometrically). The procedure:
12 Mycosphaerella Graminicola(Septoria Tritici)/Liquid Culture (Septoria Blotch) Conidia of the fungus from cryogenic storage were directly mixed into nutrient broth (PDB potato dextrose broth). After placing a DMSO solution of test compound into a 96-well microtiter plate, the nutrient broth containing the fungal spores was added. The test plates were incubated at 24° C. and the inhibition of growth was determined photometrically 4-5 days after application.

The test system of data set [2] is Glomerella Lagenarium(Colletotrichum Ladenarium). The data set is described as follows: Glomerella lagenarium (Colletotrichum lagenarium) / liquid culture (anthracnose). Particulars: PDB potato dextrose broth, 24° C., 3-4 days after application, read-out: disease control (inhibition of growth, photometrically). It counts as cell-based. As for the experimental part:
10 Glomerella Lagenarium(Colletotrichum Ladenarium)/Liquid Culture (Anthracnose) Conidia of the fungus from cryogenic storage were directly mixed into nutrient broth (PDB potato dextrose broth). After placing a DMSO solution of test compound into a 96-well microtiter plate, the nutrient broth containing the fungal spores was added. The test plates were incubated at 24° C. and the inhibition of growth was measured photometrically 3-4 days after application.

For data set [3], the system named is Phaeosphaeria Nodorum (Septoria Nodorum). In words: Phaeosphaeria nodorum (Septoria nodorum) / wheat / leaf disc preventative (glume blotch). It counts as in vivo. As to conditions: Parastagonospora nodorum, foliar, wheat leaf segments cv Kanzler, inoculated 2 days after application, assessed 5-7 days after application, read-out: disease control. As for the experimental part: 5 Phaeosphaeria Nodorum (Septoria Nodorum)/Wheat/Leaf Disc Preventative (Glume Blotch) Wheat leaf segments cv Kanzler were placed on agar in a 24-well plate and sprayed with formulated test compound diluted in water. The leaf disks were inoculated with a spore suspension of the fungus 2 days after application. The inoculated test leaf disks were incubated at 20° C. and 75% relative humidity under a light regime of 12/12 h (light/dark) in a climate cabinet and the activity of a compound was assessed as percent disease control compared to untreated when an appropriate level of disease damage appears in untreated check leaf disks (5-7 days after application).

Data set [4] relates to Monographella Nivalis(Microdochium Nivale). In words: Monographella nivalis (Microdochium nivale) / liquid culture (foot rot cereals). It counts as cell-based. Particulars: PDB potato dextrose broth, 24° C., 4-5 days after application, read-out: disease control (inhibition of growth, photometrically). As for the experimental part:
14 Monographella Nivalis(Microdochium Nivale)/Liquid Culture (Foot Rot Cereals) Conidia of the fungus from cryogenic storage were directly mixed into nutrient broth (PDB potato dextrose broth). After placing a DMSO solution of test compound into a 96-well microtiter plate, the nutrient broth containing the fungal spores was added. The test plates were incubated at 24° C. and the inhibition of growth was determined photometrically 4-5 days after application.

Data set [5] deals with Thanatephorus Cucumeris(Rhizoctonia Solani). In words: Thanatephorus cucumeris (Rhizoctonia solani) / liquid culture (foot rot, damping-off). It counts as cell-based. As to conditions: PDB potato dextrose broth, 24° C., 3-4 days after application, read-out: disease control (inhibition of growth, photometrically). As for the experimental part:
16 Thanatephorus Cucumeris(Rhizoctonia Solani)/Liquid Culture (Foot Rot, Damping-Off) Mycelia fragments of a newly grown liquid culture of the fungus were directly mixed into nutrient broth (PDB potato dextrose broth). After placing a DMSO solution of the test compounds into a 96-well microtiter plate at an application rate of 200 ppm, the nutrient broth containing the fungal material was added. The test plates were incubated at 24° C. and the inhibition of growth was determined photometrically 3-4 days after application.

Another data set concerns Fusarium Culmorum. In words: microbe, parasite or virus in culture. It counts as cell-based. As to conditions: read-out: disease control (inhibition of growth, photometrically).
The test system of data set [6] is Botryotinia Fuckeliana(Botrytis Cinerea). In words: Botryotinia fuckeliana (Botrytis cinerea) / liquid culture (gray mould). It counts as cell-based. As to conditions: Vogels broth, 24° C., 3-4 days after application, read-out: disease control (inhibition of growth, photometrically). The procedure: 9 Botryotinia Fuckeliana(Botrytis Cinerea)/Liquid Culture (Gray Mould) Conidia of the fungus from cryogenic storage were directly mixed into nutrient broth (Vogels broth). After placing a DMSO solution of test compound into a 96-well microtiter plate, the nutrient broth containing the fungal spores was added. The test plates were incubated at 24° C. and the inhibition of growth was determined photometrically 3-4 days after application.

The subject of another data set is Sclerotinia Sclerotiorum. In words: Sclerotinia sclerotiorum / liquid culture (cottony rot). Particulars: PDB potato dextrose broth, 24° C., 3-4 days after application, read-out: disease control (inhibition of growth, visually). It counts as cell-based. As for the experimental part:
17 Sclerotinia Sclerotiorum/Liquid Culture (Cottony Rot) Mycelia fragments of a newly grown liquid culture of the fungus were directly mixed into nutrient broth (PDB potato dextrose broth). After placing a (DMSO) solution of the test compounds into a microtiter plate (96-well format) the nutrient broth containing the fungal material was added. The test plates were incubated at 24° C. and the inhibition of growth was determined visually 3-4 days after application.

Data set [7] deals with Mycosphaerella Arachidis(Cercospora Arachidicola). The data set is described as follows: Mycosphaerella arachidis (Cercospora arachidicola) / liquid culture (early leaf spot). It counts as cell-based. As to conditions: PDB potato dextrose broth, 24° C., 4-5 days after application, read-out: disease control (inhibition of growth, photometrically). As for the experimental part: 11 Mycosphaerella Arachidis(Cercospora Arachidicola)/Liquid Culture (Early Leaf Spot) Conidia of the fungus from cryogenic storage were directly mixed into nutrient broth (PDB potato dextrose broth). After placing a DMSO solution of test compound into a 96-well microtiter plate, the nutrient broth containing the fungal spores was added. The test plates were incubated at 24° C. and the inhibition of growth was determined photometrically 4-5 days after application.

The next data set has as its system Gaeumannomyces Graminis. The data set is described as follows: Gaeumannomyces graminis / liquid culture (take-all of cereals). It counts as cell-based. As to conditions: PDB potato dextrose broth, 24° C., 4-5 days after application, read-out: disease control (inhibition of growth, photometrically). As for the experimental part: 13 Gaeumannomyces Graminis/Liquid Culture (Take-all of Cereals) Mycelial fragments of the fungus from cryogenic storage were directly mixed into nutrient broth (PDB potato dextrose broth). After placing a DMSO solution of test compound into a 96-well microtiter plate, the nutrient broth containing the fungal spores is added. The test plates were incubated at 24° C. and the inhibition of growth was determined photometrically 4-5 days after application.

In data set [8] the test system is Puccinia Recondita f. sp. Tritici. The data set is described as follows: Puccinia recondita f. sp. tritici / wheat / leaf disc preventative (brown rust). As to conditions: foliar, wheat leaf segments cv Kanzler, inoculated 1 day after application, assessed 7-9 days after application, read-out: disease control. It counts as in vivo. The procedure: 3 Puccinia Recondita f. sp. Tritici/Wheat/Leaf Disc Preventative (Brown Rust) Wheat leaf segments cultivated variety (cv) Kanzler were placed on agar in 24-well plates and sprayed with formulated test compound diluted in water. The leaf disks were inoculated with a spore suspension of the fungus 1 day after application. The inoculated leaf segments were incubated at 19° C. and 75% relative humidity under a light regime of 12/12 h (light/dark) in a climate cabinet and the activity of a compound was assessed as percent disease control compared to untreated when an appropriate level of disease damage appears in untreated check leaf segments (7-9 days after application).

Consider `OB1OCc2cc(Cl)c(-c3ccco3)cc21` [Compound 2, 5-chloro-6-(2-furyl)-1-hydroxy-3H-2,1-benzoxaborole], for which the melting point lay within 142 to 147 °C. Moreover, in the data set with Pythium Ultimum, the inhibition at 20 ppm is at least 80%. The pest or weed control at 200 ppm in the data set with Plasmopara Viticola was at least 80%. Also, in data set [1], the inhibition at 20 ppm is at least 80%. Moreover, the inhibition at 20 ppm in data set [2] is at least 80%. The pest or weed control at 200 ppm in [3] was at least 80%. In data set [4], the inhibition at 20 ppm is at least 80%. Also, the inhibition at 20 ppm in data set [5] was at least 80%. Further, the inhibition at 20 ppm in the data set with Fusarium Culmorum was at least 80%. Further, the inhibition at 20 ppm in data set [6] was at least 80%. The inhibition at 20 ppm with Sclerotinia Sclerotiorum was at least 80%. Besides, the inhibition at 20 ppm in data set [7] was at least 80%.
Molecule `OB1OCc2cc(F)c(-c3ccco3)cc21` [Compound 5] registered a melting point of 155 to 164 °C. In addition, the inhibition at 20 ppm with Pythium Ultimum was at least 80%. Also, in the data set with Plasmopara Viticola, the pest or weed control at 200 ppm is at least 80%. In addition, in data set [1], the inhibition at 20 ppm was at least 80%. In data set [2], the inhibition at 20 ppm was at least 80%. The inhibition at 20 ppm in data set [4] is at least 80%. Besides, in [5], the inhibition at 20 ppm was at least 80%. For the same molecule, the inhibition at 20 ppm in the data set with Fusarium Culmorum is at least 80%. The inhibition at 20 ppm in [6] was at least 80%. In the data set with Sclerotinia Sclerotiorum, the inhibition at 20 ppm was at least 80%. Also, the inhibition at 20 ppm in [7] was at least 80%. For the same molecule, the inhibition at 20 ppm in the data set on Gaeumannomyces Graminis was at least 80%.
Regarding `OB1OCc2cc(Cl)c(-c3ccccn3)cc21` [Compound 8], the inhibition at 20 ppm (with Pythium Ultimum; in data set [1]; in data set [2]; with Fusarium Culmorum; in data set [6]; in the data set with Sclerotinia Sclerotiorum) was at least 80% each time. For the same molecule, the inhibition at 20 ppm in [7] is at least 80%. Moreover, the pest or weed control at 200 ppm (in the data set on Plasmopara Viticola; in data set [3]) was at least 80% throughout.
In the case of `O=Cc1ccc(-c2cc3c(cc2Cl)COB3O)o1` [Compound 21, 5-(5-chloro-1-hydroxy-3H-2,1-benzoxaborol-6-yl)furan-2-carbaldehyde], the melting point is 145 to 165 °C. In addition, the inhibition at 20 ppm in the data set with Pythium Ultimum was at least 80%. Also, the pest or weed control at 200 ppm in the data set with Plasmopara Viticola was at least 80%. For the same molecule, in data set [1], the inhibition at 20 ppm was at least 80%. For the same molecule, in [2], the inhibition at 20 ppm is at least 80%. For the same molecule, the inhibition at 20 ppm in data set [4] is at least 80%. In the data set with Sclerotinia Sclerotiorum, the inhibition at 20 ppm was at least 80%. For the same molecule, the inhibition at 20 ppm in the data set on Gaeumannomyces Graminis is at least 80%.
In the case of `OB1OCc2cc(Cl)c(-c3cncs3)cc21` [Compound 25], the inhibition at 20 ppm (with Pythium Ultimum; in [1]; in data set [2]; in [4]; in [5]; in the data set with Fusarium Culmorum) was at least 80% in each case. Moreover, the inhibition at 20 ppm (in data set [6]; with Sclerotinia Sclerotiorum; in data set [7]; in the data set with Gaeumannomyces Graminis) was at least 80% in each case. In addition, the pest or weed control at 200 ppm (in the data set on Plasmopara Viticola; in data set [3]) was at least 80% in each case.
`OB1OCc2ccc(-c3ncno3)cc21` [Compound 49]: the melting point fell in the range of 179 to 180 °C. In addition, the inhibition at 20 ppm with Pythium Ultimum was at least 80%. Further, in the data set on Plasmopara Viticola, the pest or weed control at 200 ppm was at least 80%. Moreover, the inhibition at 20 ppm in data set [1] was at least 80%. In data set [2], the inhibition at 20 ppm is at least 80%. The pest or weed control at 200 ppm in [3] was at least 80%. Also, the inhibition at 20 ppm in data set [4] was at least 80%. In data set [5], the inhibition at 20 ppm is at least 80%. Moreover, in the data set on Fusarium Culmorum, the inhibition at 20 ppm was at least 80%. For the same molecule, in [6], the inhibition at 20 ppm was at least 80%. The inhibition at 20 ppm in the data set with Sclerotinia Sclerotiorum is at least 80%. Moreover, in data set [7], the inhibition at 20 ppm is at least 80%. In the data set with Gaeumannomyces Graminis, the inhibition at 20 ppm is at least 80%.
Turning to `Cc1cscc1-c1cc2c(cc1F)COB2O` [Compound 50], the inhibition at 20 ppm (in the data set on Pythium Ultimum; in data set [1]; in data set [2]; in data set [4]; in data set [5]; in the data set on Fusarium Culmorum) was at least 80% each time. For the same molecule, the inhibition at 20 ppm (in data set [6]; with Sclerotinia Sclerotiorum; in data set [7]; with Gaeumannomyces Graminis) was at least 80% in each case. For the same molecule, the pest or weed control at 200 ppm (with Plasmopara Viticola; in [3]) was at least 80% throughout.
In the case of `OB1OCc2cc(F)c(-c3cncc(Cl)n3)cc21` [Compound 57], the inhibition at 20 ppm (with Pythium Ultimum; in data set [1]; in data set [4]; with Fusarium Culmorum; in data set [6]; in the data set on Sclerotinia Sclerotiorum) was at least 80% throughout. Besides, the inhibition at 20 ppm (in data set [7]; with Gaeumannomyces Graminis) was at least 80% throughout. The pest or weed control at 200 ppm (in the data set with Plasmopara Viticola; in data set [3]) was at least 80% throughout.
In the case of `Cc1cc(-c2cc3c(cc2Cl)COB3O)c(C#N)o1` [Compound 66], the inhibition at 20 ppm in the data set on Pythium Ultimum and with Gaeumannomyces Graminis was at least 80% throughout. The pest or weed control at 200 ppm (in data set [8]; with Plasmopara Viticola) was at least 80% in each case.
With `OB1OCc2cc(Cl)c(-c3cncc(Cl)n3)cc21` [Compound 68], the inhibition at 20 ppm (in the data set with Pythium Ultimum; in [1]; in data set [4]; in data set [6]; in the data set with Sclerotinia Sclerotiorum; in data set [7]) was at least 80% in each case. Also, the inhibition at 20 ppm in the data set with Gaeumannomyces Graminis is at least 80%. For the same molecule, the pest or weed control at 200 ppm (in the data set on Plasmopara Viticola; in [3]) was at least 80% each time.
Take `COc1ncccc1-c1cc2c(cc1F)COB2O` [Compound 81]: the inhibition at 20 ppm (in the data set on Pythium Ultimum; in data set [1]; in data set [2]; in data set [4]; with Sclerotinia Sclerotiorum; in data set [7]) was at least 80% throughout. The inhibition at 20 ppm with Gaeumannomyces Graminis was at least 80%. Also, the pest or weed control at 200 ppm (in the data set on Plasmopara Viticola; in data set [3]) was at least 80% each time.
